Source: US6737383B1, “Herbicidal oxadiazolidines” (priority 1999, dated 2004)

Assays:
[1] = system: wheat; test: Test B pre/postemergence wheat; assay type: in vivo, Triticum aestivum; details: for Plant response rating, Wheat: scale of 0 to 10 where 0 is no effect and 10 is complete control
How it was run: (§1)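 Response is a visual 0-to-10 score relative to untreated plants, where 0 means no effect and 10 means complete control, taken twelve to sixteen days after application. Treatments went onto soil at planting and onto foliage of 1- to 4-leaf plants, using a surfactant-containing non-phytotoxic solvent.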

[2] = system: morningglory; test: Test B pre/postemergence morningglory; assay type: in vivo, Ipomoea hederacea; details: for Plant response rating, Morningglory: scale of 0 to 10 where 0 is no effect and 10 is complete control
How it was run: as §1

[3] = system: blackgrass; test: Test B pre/postemergence blackgrass; assay type: in vivo, Alopecurus myosuroides
How it was run: as §1

[4] = system: giant foxtail; test: Test B pre/postemergence giant foxtail; assay type: in vivo, Setaria faberii
How it was run: as §1

[5] = system: pigweed; test: Test B pre/postemergence pigweed; assay type: in vivo, Amaranthus retroflexus; details: for Plant response rating, Redroot pigweed: scale of 0 to 10 where 0 is no effect and 10 is complete control
How it was run: as §1

[6] = system: rice; test: Test B flood test rice; assay type: in vivo, Oryza sativa
How it was run: (§2)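 Plants were grown to the 2-leaf stage before treatment with test chemical, then held in a greenhouse for twelve to sixteen days. Injury was visually rated against untreated controls on a 0–10 scale, where 0 is no effect and 10 is complete control.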

[7] = system: cocklebur; test: Test B pre/postemergence cocklebur; assay type: in vivo, Xanthium strumarium
How it was run: as §1

[8] = system: purple nutsedge; test: Test B pre/postemergence purple nutsedge; assay type: in vivo, Cyperus rotundus; details: for Plant response rating, Nutsedge: scale of 0 to 10 where 0 is no effect and 10 is complete control
How it was run: as §1

[9] = system: bamyardgrass; test: Test B flood test barnyardgrass; assay type: in vivo, Echinochloa crus-galli
How it was run: as §2

[10] = system: velvetleaf; test: Test B pre/postemergence velvetleaf; assay type: in vivo, Abutilon theophrasti; details: for Plant response rating, Velvetleaf: scale of 0 to 10 where 0 is no effect and 10 is complete control
How it was run: as §1

[11] = system: bedstraw; test: Test B pre/postemergence bedstraw; assay type: in vivo, Galium aparine
How it was run: as §1

[12] = system: wild oat; test: Test B pre/postemergence wild oat; assay type: in vivo, Avena fatua; details: for Plant response rating, Wild oats: scale of 0 to 10 where 0 is no effect and 10 is complete control
How it was run: as §1

[13] = system: surinam grass; test: Test B pre/postemergence surinam grass; assay type: in vivo, Brachiaria decumbens
How it was run: as §1

[14] = system: duck salad; test: Test B flood test duck salad; assay type: in vivo, Heteranthera limosa
How it was run: as §2

[15] = system: sugar beet; test: Test B pre/postemergence sugar beet; assay type: in vivo, Beta vulgaris; details: for Plant response rating, Sugarbeets: scale of 0 to 10 where 0 is no effect and 10 is complete control
How it was run: as §1

[16] = system: crabgrass; test: Test B pre/postemergence crabgrass; assay type: in vivo, Digitaria sanguinalis
How it was run: as §1

[17] = Postemergence, Rate 250 g/ha, scale 0 to 10
[18] = Preemergence, Rate 250 g/ha, scale 0 to 10, 0 is no effect, 10 is complete control
[19] = Preemergence, Rate 500 g/ha, scale 0 to 10, 0 is no effect, 10 is complete control
[20] = Rate 62 g/ha, Postemergence, scale 0 to 10 (0 no effect, 10 complete control)
[21] = Rate 125 g/ha, Postemergence, scale 0 to 10, 0 is no effect, 10 is complete control
[22] = Postemergence, Rate 500 g/ha, scale of 0 to 10 where 0 is no effect and 10 is complete control
[23] = Preemergence, Rate 62 g/ha, scale of 0 to 10 where 0 is no effect and 10 is complete control
[24] = Preemergence, Rate 125 g/ha, scale of 0 to 10 where 0 is no effect and 10 is complete control
[25] = Rate 62 g/ha, flood test species, Pre-emergence, visual evaluation after twelve to sixteen days
[26] = Rate 125 g/ha, under heading Pre-emergence, flood test species, visual evaluation after twelve to sixteen days
[27] = Rate 250 g/ha, Pre-emergence (flood test species), scale 0 to 10, 0 is no effect, 10 is complete control
[28] = Rate 500 g/ha, Pre-emergence, flood test species, scale 0 to 10 (0 no effect, 10 complete control)

CC(C)N(C(=O)n1oc(=O)n(CO)c1=O)c1ccc(Cl)cc1 [Compound 457]
Wheat plant response rating [1, 17]: 0 | Plant response rating, Wheat ([1]; Preemergence, Rate 62 g/ha): 0 | Plant response rating, Wheat ([1]; Preemergence, Rate 125 g/ha): 0 | Wheat plant response rating [1, 18]: 0 | Wheat plant response rating [1, 19]: 0 | Wheat plant response rating [1, 20]: 0 | Wheat plant response rating [1, 21]: 0 | Morningglory plant response rating [2, 17]: 0 | Plant response rating, Morningglory ([2]; Preemergence, Rate 62 g/ha): 0 | Plant response rating, Morningglory ([2]; Preemergence, Rate 125 g/ha): 0 | Morningglory plant response rating [2, 18]: 0 | Morningglory plant response rating [2, 19]: 0 | Morningglory plant response rating [2, 20]: 0 | Morningglory plant response rating [2, 21]: 0 | Blackgrass plant response rating [3, 17]: 0 | Blackgrass plant response rating [3, 22]: 0 | Plant response rating, Blackgrass [3, 23]: 0 | Plant response rating, Blackgrass [3, 24]: 0 | Blackgrass plant response rating [3, 18]: 0 | Blackgrass plant response rating [3, 19]: 0 | Blackgrass plant response rating [3, 20]: 0 | Blackgrass plant response rating [3, 21]: 0 | Giant foxtail plant response rating [4, 17]: 0 | Giant foxtail plant response rating [4, 22]: 0 | Plant response rating, Giant foxtail [4, 23]: 0 | Plant response rating, Giant foxtail [4, 24]: 0 | Giant foxtail plant response rating [4, 18]: 0 | Giant foxtail plant response rating [4, 19]: 8 | Giant foxtail plant response rating [4, 20]: 0 | Giant foxtail plant response rating [4, 21]: 0 | Redroot pigweed plant response rating [5, 17]: 0 | Plant response rating, Redroot pigweed ([5]; Preemergence, Rate 62 g/ha): 0 | Plant response rating, Redroot pigweed ([5]; Preemergence, Rate 125 g/ha): 0 | Redroot pigweed plant response rating [5, 18]: 0 | Redroot pigweed plant response rating [5, 19]: 0 | Redroot pigweed plant response rating [5, 20]: 0 | Redroot pigweed plant response rating [5, 21]: 0 | Plant response rating, Rice (0 to 10 scale, 0 is no effect, 10 is complete control) [6, 25]: 0 | Rice plant response rating (0 to 10 scale, 0 is no effect, 10 is complete control) [6, 26]: 0 | Rice plant response rating [6, 27]: 0 | Rice plant response rating [6, 28]: 0 | Cocklebur plant response rating [7, 17]: 0 | Cocklebur plant response rating [7, 22]: 0 | Plant response rating, Cocklebur [7, 23]: 0 | Plant response rating, Cocklebur [7, 24]: 0 | Cocklebur plant response rating [7, 18]: 0 | Cocklebur plant response rating [7, 19]: 0 | Cocklebur plant response rating [7, 20]: 0 | Cocklebur plant response rating [7, 21]: 0 | Nutsedge plant response rating [8, 17]: 0 | Plant response rating, Nutsedge ([8]; Preemergence, Rate 62 g/ha): 0 | Plant response rating, Nutsedge ([8]; Preemergence, Rate 125 g/ha): 0 | Nutsedge plant response rating [8, 18]: 0 | Nutsedge plant response rating [8, 19]: 0 | Nutsedge plant response rating [8, 20]: 0 | Nutsedge plant response rating [8, 21]: 0 | Plant response rating, Barnyardgrass (0 to 10 scale, 0 is no effect, 10 is complete control) [9, 25]: 0 | Barnyardgrass plant response rating (0 to 10 scale, 0 is no effect, 10 is complete control) [9, 26]: 0 | Barnyardgrass plant response rating [9, 27]: 0 | Barnyardgrass plant response rating [9, 28]: 0 | Velvetleaf plant response rating [10, 17]: 0 | Plant response rating, Velvetleaf ([10]; Preemergence, Rate 62 g/ha): 0 | Plant response rating, Velvetleaf ([10]; Preemergence, Rate 125 g/ha): 0 | Velvetleaf plant response rating [10, 18]: 0 | Velvetleaf plant response rating [10, 19]: 0 | Velvetleaf plant response rating [10, 20]: 0 | Velvetleaf plant response rating [10, 21]: 0 | Bedstraw plant response rating [11, 18]: 0 | Bedstraw plant response rating [11, 19]: 0 | Bedstraw plant response rating [11, 20]: 0 | Bedstraw plant response rating [11, 21]: 0 | Wild oats plant response rating [12, 17]: 0 | Plant response rating, Wild oats ([12]; Preemergence, Rate 62 g/ha): 0 | Plant response rating, Wild oats ([12]; Preemergence, Rate 125 g/ha): 0 | Wild oats plant response rating [12, 18]: 0 | Wild oats plant response rating [12, 19]: 0 | Wild oats plant response rating [12, 20]: 0 | Wild oats plant response rating [12, 21]: 0 | B. signalgrass plant response rating ([13]; Postemergence, Rate 250 g/ha, scale 0 to 10, 0 no effect, 10 complete control): 0 | B. signalgrass plant response rating [13, 22]: 0 | Plant response rating, B. signalgrass [13, 23]: 0 | Plant response rating, B. signalgrass [13, 24]: 0 | B. signalgrass plant response rating [13, 18]: 0 | B. signalgrass plant response rating [13, 19]: 0 | B. signalgrass plant response rating [13, 20]: 0 | B. signalgrass plant response rating [13, 21]: 0 | Plant response rating, Ducksalad (0 to 10 scale, 0 is no effect, 10 is complete control) [14, 25]: 0 | Ducksalad plant response rating (0 to 10 scale, 0 is no effect, 10 is complete control) [14, 26]: 0 | Ducksalad plant response rating [14, 27]: 0 | Ducksalad plant response rating [14, 28]: 0 | Sugarbeets plant response rating [15, 17]: 0 | Plant response rating, Sugarbeets ([15]; Preemergence, Rate 62 g/ha): 0 | Plant response rating, Sugarbeets ([15]; Preemergence, Rate 125 g/ha): 0 | Sugarbeets plant response rating [15, 18]: 0 | Sugarbeets plant response rating [15, 19]: 0 | Sugarbeets plant response rating [15, 20]: 0 | Sugarbeets plant response rating [15, 21]: 0 | Crabgrass plant response rating [16, 17]: 0 | Crabgrass plant response rating [16, 22]: 0 | Plant response rating, Crabgrass [16, 23]: 0 | Plant response rating, Crabgrass [16, 24]: 0 | Crabgrass plant response rating [16, 18]: 0 | Crabgrass plant response rating [16, 19]: 0 | Crabgrass plant response rating [16, 20]: 0 | Crabgrass plant response rating [16, 21]: 0
